Series [1] can be described thus: Release test of Van from AL-ABA-Van solution (dialysis membrane, PBS). The class given is physicochemical. As to the method: The release behavior or Van from an AL-ABA-Van solution at different pH values was investigated using a dialysis membrane (pore size: 50 kDa). Specifically, 1 mL of an AL-ABA-Van solution of the AL-ABA-Van obtained in Example I-7 above dissolved in […] of pure water was injected into a dialysis membrane cut to 9 cm, and both ends of the dialysis membrane were tied with kite thread. This was placed in an 80 mL security, container, 79 mL of PBS solution was added, and the mixture was stirred at the maximum rotational speed with a 1 cm stirrer tip in a 37° C. thermostatic tank. 1.0 mL samples were taken from the solution in the security container at specific time points (1, 2, 3, 4, 6, 8, 12, 24, and 48 hours). The sample solutions were subjected to UV-vis spectrum measurement, the drug concentration in the solutions was assayed based on absorbance, and the release rate of the drug Van (vancomycin release %) was calculated. The above measurements were conducted with pH 5.0, pH 6.0 and pH 7.4 PBS solutions (n=4 at each pH).
For purposes of comparison as control tests, the same release testing was also performed with the AL-ABA-Van solution replaced by a mixed solution (AL+Van) of sodium alginate and vancomycin obtained by dissolving 3 mg/mL of sodium alginate (AL) (IL-6G, viscosity 50 to 80 mPa·s (1%), manufactured by Kimica Co., Ltd.) and 8.6 mg/mL of vancomycin (Van) in pure water, and by a solution (Van only) obtained by dissolving 8.6 mg/mL of vancomycin (Van) in pure water.

In series [2] the test system is AB22 cells (mouse mesothelioma cells). The series can be described thus: Cell toxicity evaluation (WST assay) of HA-ABA-DOX in AB22. The settings on record: 48 hours; for Cell growth inhibition effect (cell viability): DOX 10^−3 to 100 μg/mL. The class given is cell-based. As to the method: As with the HA-ABA, the cell toxicity of HA-ABA-DOX in AB22 cells (mouse mesothelioma cells) was evaluated by WST assay.
Specifically, AB22 cells (mouse mesothelioma cells) were seeded on 24-well plates and incubated for 24 hours. The medium was then replaced with media having […] dissolved at different DOX concentrations (10^−3 μg/mL, 10^−2 μg/mL, 10^−1 μg/mL, 1 μg/mL, 10 μg/mL, 100 μg/mL). Cell viability (%) 48 hours after sample addition was then measured by WST-8 assay (Cell Counting Kit-8 Dojindo).
For purposes of comparison as a control test, cell toxicity was also evaluated using free DOX in place of HA-ABA-DOX.

The nature of series [3]: Release test of PMX from HA-ABA-PMX (dialysis tube, PBS). In kind it is physicochemical. How it is done:
The release behavior or PMX from HA-ABA-PMX at different pH values was investigated using a dialysis tube (MWCO: 1 kDa). […] The external solution (sustained release solution) was collected at specific time points, and new PBS was substituted for the entire amount. The drug concentration in the collected external solution (sustained release solution) was measured by UV-vis, and the release rate of the drug PMX was calculated.

Series [4] relates to AB22 cells (mouse mesothelioma cells). Kind of series: Cell toxicity evaluation (WST assay) of HA-ABA-PMX in AB22. The class given is cell-based. The settings on record: 48 hours; for Cell growth inhibition effect (cell viability): PMX 10^−4 to 10 μg/mL. How it is done: (§1) As with the HA-ABA, the cell toxicity of HA-ABA-PMX in MeT-5A (human mesothelial cell line) and AB22 cells (mouse mesothelioma cells) was evaluated by WST assay.
(§2) Specifically, MeT-5A (human mesothelial cell line) and AB22 cells (mouse mesothelioma cells) were seeded on 24-well plates and incubated for 24 hours. The medium was then replaced with medium having HA-ABA-PMX dissolved at different PMX concentrations (10^−4 μg/mL, 10^−3 μg/mL, 10^−2 μg/mL, 10^−1 μg/mL, 1 μh/mL, 10 μg/mL). Cell viability (%) 48 hours after sample addition was then measured by WST-8 assay (Cell Counting Kit-8, Dojindo).

The subject of series [5] is MeT-5A (human mesothelial cell line). The series can be described thus: Cell toxicity evaluation (WST assay) of HA-ABA-PMX in MeT-5A. In kind it is cell-based. The settings on record: 48 hours; for Cell growth inhibition effect (cell viability): PMX 10^−4 to 10 μg/mL. As to the method:
as §1, §2

Series [6] is described as follows: Release test of DOX from HA-ABA-DOX (dialysis tube, PBS). The class given is physicochemical. The settings on record: PBS 37° C., pH 5.0, 6.0, 7.4. As to the method:
Release of DOX from HA-ABA-DOX under different pH conditions was investigated in the same manner as in Example II-2. Specifically, 1 mL of an aqueous solution of the HA-ABA-DOX (1 mg/mL) obtained in Example II-3 above was placed in a dialysis tube (MWCO: 1 kDa), and shaken at 50 rpm while being incubated with 79 mL of PBS (37° C., pH=5.0, 6.0 7.4). The external solution (sustained release solution) was collected at specific time points, and new PBS was substituted for the entire amount. The drug concentration in the collected external solution (sustained release solution) was measured by UV-vis, and the release rate of the drug DOX was calculated.

6 compounds from US20230285577A1, “POLYSACCHARIDE DERIVATIVE, POLYSACCHARIDE DERIVATIVE-DRUG CONJUGATE, AND METHOD FOR PRODUCING SAME” (priority 2020, published 2023) can be followed below.

With `CN[C@H](CC(C)C)C(=O)N[C@H]1C(=O)N[C@@H](CC(N)=O)C(=O)N[C@H]2C(=O)N[C@H]3C(=O)N[C@H](C(=O)N[C@H](C(=O)O)c4cc(O)cc(O)c4-c4cc3ccc4O)[C@H](O)c3ccc(c(Cl)c3)Oc3cc2cc(c3O[C@@H]2O[C@H](CO)[C@@H](O)[C@H](O)[C@H]2O[C@H]2C[C@](C)(N)[C@H](O)[C@H](C)O2)Oc2ccc(cc2Cl)[C@H]1O` [Van, Vancomycin, reference compound], the Van released result in series [1] (control solutions, first 10 hours, pH 5.0, 6.0, 7.4) is reported as “almost all”. Also, in series [1] (pH 5.0, 6.0, 7.4), the “pH dependence of Van release behavior” value is listed as “no difference in release behavior depending on pH”.

As to `COc1cccc2c1C(=O)c1c(O)c3c(c(O)c1C2=O)C[C@@](O)(C(=O)CO)C[C@@H]3O[C@H]1C[C@H](N)[C@H](O)[C@H](C)O1` [free DOX, Doxorubicin, reference compound], the “Cell growth inhibition effect (cell viability)” value (“Cell growth inhibition effect” below) in series [2] is on record as “dose-dependent cell growth inhibition effects”.

Consider “benzaldehyde-modified hyaluronic acid-pemetrexed conjugate [HA-ABA-PMX]”, for which, in series [3] (PBS pH 5.0, 37° C., after 24 hours), the “PMX released (cumulative drug release)” value is “more than 80%”. Moreover, the PMX not released in series [3] (PBS pH 7.4, 37° C., after 24 hours) came to 40%. The “pH dependence of PMX release” value in series [3] (pH 5.0, 6.0, 7.4) is on record as “released more rapidly at lower pH values”. Also, in series [4], the “Concentration reducing cell viability compared with free PMX and HA-ADH-PMX” value is “reduced cell viability at lower concentrations”; the “Cell growth inhibition effect” value was “dose-dependent cell growth inhibition effects”. Also, in series [5], the “Concentration reducing cell viability compared with free PMX and HA-ADH-PMX” value is “reduced cell viability at lower concentrations”; the “Cell growth inhibition effect” value is given as “dose-dependent cell growth inhibition effects”.

As to “benzaldehyde-modified alginic acid-vancomycin conjugate [AL-ABA-Van]”, in series [1] (PBS pH 5.0, 37° C., after 10 hours), the “Van released (cumulative release rate)” value is reported as “over 80%”. In addition, the Van not released in series [1] (PBS pH 7.4, 37° C., after 10 hours) is on record as approximately 50%. Also, the “pH dependence of Van release behavior” value in series [1] (pH 5.0, 6.0, 7.4) is recorded as “released more rapidly the lower the pH”.

For `Nc1nc2[nH]cc(CCc3ccc(C(=O)N[C@@H](CCC(=O)O)C(=O)O)cc3)c2c(=O)[nH]1` [Free PMX, Pemetrexed, reference compound], the PMX released entry in series [3] (control solutions, within 2 hours) is given as “almost all”. For the same compound, the “Cell growth inhibition effect” value in series [4] and in series [5] was “dose-dependent cell growth inhibition effects” each time.

Consider “benzaldehyde-modified hyaluronic acid-doxorubicin conjugate [HA-ABA-DOX]”, for which the “pH dependence of DOX release” value in series [6] was “selective drug release at low pH”. In addition, in series [2], the “Concentration depressing cell viability compared with free DOX” value is on record as “depressed cell viability at lower concentrations” and the “Cell growth inhibition effect” value is reported as “dose-dependent cell growth inhibition effects”.
